According to patent US9732088B2, “C2-carbocyclic iminothiazine dioxides as BACE inhibitors, compositions, and their use” (Merck Sharp & Dohme Corp., priority 2014, dated 2017):

Experiments:
[1] = biological target: soluble human BACE-1 catalytic domain (Homo sapiens (Human), UniProt P56817); experiment: BACE-1 Ki Assay (BACE-1 HTRF FRET Assay); type: biochemical; conditions: Assay 1; Ki calculated from IC50 by Cheng-Prusoff
Procedure: Assay 1: BACE-1 Ki Assay (BACE-1 HTRF FRET Assay)
The compounds of the invention were determined to be potent inhibitors of BACE-1 using the following assay.
The following reagents were used in this assay. Na^+-Acetate pH 5.0; 1% Brij-35; Glycerol; Dimethyl Sulfoxide (DMSO); Recombinant human soluble BACE-1 catalytic domain (>95% pure); APP Swedish mutant peptide substrate (QSY7-APP^swe-Eu): QSY7-[…]-Europium-amide.
A homogeneous time-resolved FRET assay can be used to determine IC50 values for inhibitors of the soluble human BACE-1 catalytic domain. This assay monitors the increase of 620 nm fluorescence that resulted from BACE-1 cleavage of an APPswedish APP^swe mutant peptide FRET substrate (QSY7-[…]-Europium-amide). This substrate contains an N-terminal QSY7 moiety that serves as a quencher of the C-terminal Europium fluorophore (620 nm Em). In the absence of enzyme activity, 620 nm fluorescence is low in the assay and increased linearly over 3 hours in the presence of uninhibited BACE-1 enzyme. Inhibition of BACE-1 cleavage of the QSY7-APP^swe-Eu substrate by inhibitors is manifested as a suppression of 620 nm fluorescence.
Varying concentrations of inhibitors at 3× the final desired concentration in a volume of […] are preincubated with purified human BACE-1 catalytic domain (3 nM in 10 μl) for 30 minutes at 30° C. in reaction buffer containing 20 mM Na-Acetate pH 5.0, 10% glycerol, 0.1% Brij-35 and 7.5% DSMO. Reactions are initiated by addition of 10 μl of 600 nM QSY7-APP^swe-Eu substrate (200 nM final) to give a final reaction volume of 30 μl in a 384 well Nunc HTRF plate. The reactions are incubated at 30° C. for 1.5 hours. The 620 nm fluorescence is then read on a Rubystar HTRF plate reader (BMG Labtechnologies) using a […] delay followed by a 400 millisecond acquisition time window. Inhibitor IC50 values are derived from non-linear regression analysis of concentration response curves. Ki values are then calculated from IC50 values using the Cheng-Prusoff equation using a previously determined […] of 8 μM for the QSY7-APP^swe-Eu substrate at BACE-1. The example compounds of the invention were measured in this assay.

[2] = biological target: purified human autoBACE-2 (Homo sapiens (Human), UniProt Q9Y5Z0); experiment: BACE-2 Assay (BACE-HTRF assay); type: biochemical; conditions: Assay 2; Ki calculated from IC50 by Cheng-Prusoff; read-out: BACE2 Ki
purified human autoBACE-2, sequence (Q9Y5Z0 63-466): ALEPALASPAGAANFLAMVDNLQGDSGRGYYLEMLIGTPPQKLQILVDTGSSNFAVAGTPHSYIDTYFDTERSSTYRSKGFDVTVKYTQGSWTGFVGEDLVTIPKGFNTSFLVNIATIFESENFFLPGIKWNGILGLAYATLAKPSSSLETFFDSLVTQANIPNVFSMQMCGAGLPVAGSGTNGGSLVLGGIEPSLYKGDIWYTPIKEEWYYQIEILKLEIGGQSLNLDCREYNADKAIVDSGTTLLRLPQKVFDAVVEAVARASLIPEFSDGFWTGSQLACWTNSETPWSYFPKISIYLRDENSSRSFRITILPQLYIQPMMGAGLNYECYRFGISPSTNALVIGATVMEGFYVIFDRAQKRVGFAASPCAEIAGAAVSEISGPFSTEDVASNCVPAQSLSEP
Procedure: The compounds of the invention were determined to be potent inhibitors of BACE-2 using the following assay. Inhibitor IC50s at purified human autoBACE-2 are determined in a time-resolved endpoint proteolysis assay that measures hydrolysis of the QSY7-[…]-Eu-amide FRET peptide substrate (BACE-HTRF assay). BACE-mediated hydrolysis of this peptide results in an increase in relative fluorescence (RFU) at 620 nm after excitation with 320 nm light Inhibitor compounds, prepared at 3× the desired final concentration in 1×BACE assay buffer (20 mM sodium acetate pH 5.0, 10% glycerol, 0.1% Brij-35) supplemented with 7.5% DMSO are pre-incubated with an equal volume of autoBACE-2 enzyme diluted in 1×BACE assay buffer (final enzyme concentration 1 nM) in black 384-well NUNC plates for 30 minutes at 30° C. […] DMSO is present at […] final concentration in the assay. Following laser excitation of sample wells at 320 nm, the fluorescence signal at 620 nm is collected for 400 ms following a 50 μs delay on a RUBYstar HTRF plate reader (BMG Labtechnologies). Raw RFU data is normalized to maximum (1.0 nM BACE/DMSO) and minimum (no enzyme/DMSO) RFU values. IC50 values are determined by nonlinear regression analysis (sigmoidal dose response, variable slope) of percent inhibition data with minimum and maximum values set to 0 and 100 percent respectively. Similar IC50s are obtained when using raw RFU data. The Ki values are calculated from the IC50 using the Cheng-Prusoff equation.

BACE-1 = BACE-1 (Homo sapiens (Human), UniProt P56817); experiment: BACE-1 Cellular Assay (Aβ in HEK293-APPswe/lon cells); type: cell-based; conditions: 4 hours
BACE-1, sequence (P56817 46-501): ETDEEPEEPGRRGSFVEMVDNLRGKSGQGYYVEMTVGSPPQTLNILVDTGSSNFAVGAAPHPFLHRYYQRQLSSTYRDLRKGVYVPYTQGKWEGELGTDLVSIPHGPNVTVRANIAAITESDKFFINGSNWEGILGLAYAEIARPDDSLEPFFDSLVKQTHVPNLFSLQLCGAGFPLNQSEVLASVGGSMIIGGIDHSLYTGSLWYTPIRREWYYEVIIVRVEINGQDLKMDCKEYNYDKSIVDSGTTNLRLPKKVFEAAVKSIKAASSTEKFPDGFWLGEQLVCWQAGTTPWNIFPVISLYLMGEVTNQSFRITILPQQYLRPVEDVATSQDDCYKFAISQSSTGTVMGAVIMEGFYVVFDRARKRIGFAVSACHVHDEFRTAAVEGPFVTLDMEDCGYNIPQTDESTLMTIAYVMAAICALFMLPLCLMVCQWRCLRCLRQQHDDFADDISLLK
Procedure: Assay 3: BACE-1 Cellular Assay
Certain compounds of the invention, identified in the tables herein, were determined to be potent inhibitors of BACE-1 in the following cellular assay. HEK293 cells are obtained from the American Type Culture Collection (ATCC) and stably transfected with the human amyloid precursor protein cDNA containing the FAD Swedish (enhances β-secretase processing) and London (enhances Aβ42 cleavage) mutations. A HEK293 stable clone with Aβ expression (HEK293-APP^swe/lon) is identified and maintained at 37° C., 5% CO2 in the ATCC-recommended growth media supplemented with hygromycin. […] Aβ40 or Aβ42 are measured in 15 μl of media using a mesoscale based ELISA assay. Full length Aβ40 and Aβ42 peptides are captured with the N-terminal specific biotinylated-WO2 monoclonal antibody and detected using either the ruthenylated Aβ40 C-terminal specific monoclonal antibody, G2-10 or the ruthenylated Aβ42 C-terminal specific monoclonal antibody G2-11 respectively. Raw electrochemiluminescnce values are measured using a Mesoscale Sector Imager plate reader and are plotted as a function of compound concentration. IC50 values are interpolated from the data using nonlinear regression analysis (Sigmoidal dose response fit with variable slope) of the data using GraphPad Prism software.

[3] = biological target: purified human Cathepsin-D (Homo sapiens (Human), UniProt P07339); experiment: Cathepsin-D Assay (time-resolved FRET); type: biochemical; conditions: Assay 4; Ki calculated from IC50 by Cheng-Prusoff;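 further: Europium-labelled peptide substrate with QSY7 quencher, cleavage read as 620 nm fluorescence after 30 min preincubation then 30 min reaction at 30 °C, pH 5.0, inhibition lowers signal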
purified human Cathepsin-D, sequence (P07339 65-412): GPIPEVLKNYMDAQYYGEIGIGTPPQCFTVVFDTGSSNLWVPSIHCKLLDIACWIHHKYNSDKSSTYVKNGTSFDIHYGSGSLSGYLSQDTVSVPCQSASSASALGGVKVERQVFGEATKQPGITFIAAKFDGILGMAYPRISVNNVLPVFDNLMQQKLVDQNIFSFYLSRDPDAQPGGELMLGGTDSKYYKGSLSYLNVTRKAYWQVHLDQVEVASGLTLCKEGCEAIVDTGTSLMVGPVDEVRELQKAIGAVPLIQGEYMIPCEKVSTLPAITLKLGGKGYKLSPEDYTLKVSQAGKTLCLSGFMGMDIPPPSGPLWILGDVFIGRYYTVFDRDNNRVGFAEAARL
Procedure: Assay 4: Cathepsin-D Assay
This substrate contains an C-terminal QSY7 moiety that serves as a quencher of the N-terminal Europium fluorophore (620 nm Em). In the absence of enzyme activity, 620 nm fluorescence is low in the assay and increased linearly over 1 hour in the presence of uninhibited Cathepsin-D enzyme. Inhibition of Cathespin D cleavage of the Eu-Aspartyl Protease-QSY7 substrate by inhibitors is manifested as a suppression of 620 nm fluorescence.
Varying concentrations of inhibitors in a volume of 100 nl are preincubated with purified human Cathepsin-D (0.1 nM in 10 μl) for 30 minutes at 30° C. in reaction buffer containing 100 mM Na-Acetate pH 5.0, and 0.02% Brij-35. Reactions are initiated by addition of 10 μl of 100 nM Eu-Aspartyl Protease-QSY7 substrate (50 nM final) to give a final reaction volume of 20 μl in a 384 well Nunc HTRF plate. The reactions are incubated at 30° C. for 30 minutes. The 620 nm fluorescence is then read on a Envision Multilabel plate reader (Perkin-Elmer) using a 200 microsecond delay followed by a 400 microsecond acquisition time window. Inhibitor IC50 values are derived from non-linear regression analysis of concentration response curves.

soluble human BACE-1 catalytic domain, sequence (P56817 75-416): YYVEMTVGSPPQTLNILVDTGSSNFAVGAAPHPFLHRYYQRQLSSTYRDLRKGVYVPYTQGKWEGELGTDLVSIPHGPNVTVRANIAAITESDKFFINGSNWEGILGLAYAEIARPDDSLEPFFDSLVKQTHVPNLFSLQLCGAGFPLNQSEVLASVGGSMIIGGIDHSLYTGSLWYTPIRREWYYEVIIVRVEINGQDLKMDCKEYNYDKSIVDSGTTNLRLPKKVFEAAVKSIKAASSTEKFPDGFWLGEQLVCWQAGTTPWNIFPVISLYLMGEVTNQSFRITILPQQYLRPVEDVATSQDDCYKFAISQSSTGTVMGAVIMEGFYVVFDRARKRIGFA

| Ki [1] | Ki [2] | IC50 (BACE-1) | SMILES | Ki [3] |
| --- | --- | --- | --- | --- |
| 13.6 nM | 1.3 nM | 111 nM | COc1cnc2c(Nc3cc([C@]4(C)CS(=O)(=O)[C@@](C)(C5CC5)C(N)=N4)c(F)cn3)nccc2n1 [Example 9, N-{4-[(3R,6S)-6-cyclopropyl-5-imino-3,6-dimethyl-1,1-dioxidothiomorpholin-3-yl]-5-fluoropyridin-2-yl}-2-methoxypyrido[3,4-b]pyrazin-5-amine] | > 9400 nM |
| 5.3 nM | 1.9 nM |  | COc1cnc2c(Nc3cc([C@]4(C)CS(=O)(=O)[C@@](C)(C5CC5)C(N)=N4)c(F)cn3)ccnc2c1 [Example 21, (2S,5R)-2-cyclopropyl-5-(5-fluoro-2-((7-methoxy-1,5-naphthyridin-4-yl)amino)pyridin-4-yl)-3-imino-2,5-dimethylthiomorpholine 1,1-dioxide] |  |
| 271 nM | 129 nM |  | COc1cnc2c(Nc3cc([C@]4(C)CS(=O)(=O)[C@@](C)(C5CC5)C(N)=N4)c(F)cn3)ncnc2n1 [Example 23, (2S,5R)-2-cyclopropyl-5-(5-fluoro-2-((7-methoxypteridin-4-yl)amino)pyridin-4-yl)-3-imino-2,5-dimethylthiomorpholine 1,1-dioxide] | > 9400 nM |
|  |  | 250 nM | C[C@@]1(c2cc(Nc3nccc4cc(F)cnc34)ncc2F)CS(=O)(=O)[C@@](C)(C2CC2)C(N)=N1 [Example 26, (3R,6S)-5-amino-6-cyclopropyl-3-(5-fluoro-2-((3-fluoro-1,7-naphthyridin-8-yl)amino)pyridin-4-yl)-3,6-dimethyl-3,6-dihydro-2H-1,4-thiazine 1,1-dioxide] |  |
|  |  | 6.3 nM | CC#CCOc1cnc2c(Nc3cc([C@]4(C)CS(=O)(=O)[C@@](C)(C5CC5)C(N)=N4)c(F)cn3)nccc2n1 [Example 28, (3R,6S)-5-amino-3-(2-((2-(but-2-yn-1-yloxy)pyrido[3,4-b]pyrazin-5-yl)amino)-5-fluoropyridin-4-yl)-6-cyclopropyl-3,6-dimethyl-3,6-dihydro-2H-1,4-thiazine 1,1-dioxide] |  |
|  |  | 28 nM | CC#CCOc1cnc2c(Nc3cnc(F)c([C@]4(C)CS(=O)(=O)[C@@](C)(C5CC5)C(N)=N4)c3)nccc2c1 [Example 30, (3R,6S)-5-amino-3-(5-((3-(but-2-yn-1-yloxy)-1,7-naphthyridin-8-yl)amino)-2-fluoropyridin-3-yl)-6-cyclopropyl-3,6-dimethyl-3,6-dihydro-2H-1,4-thiazine 1,1-dioxide] |  |
|  |  | 32 nM | C[C@@]1(c2cc(Nc3ccnc4cc(F)cnc34)ncc2F)CS(=O)(=O)[C@@](C)(C2CC2)C(N)=N1 [Example 34, (3R,6S)-5-amino-6-cyclopropyl-3-(5-fluoro-2-((7-fluoro-1,5-naphthyridin-4-yl)amino)pyridin-4-yl)-3,6-dimethyl-3,6-dihydro-2H-1,4-thiazine 1,1-dioxide] |  |
|  |  | 23 nM | COc1cnc2c(Nc3ccc(F)c([C@]4(C)CS(=O)(=O)[C@@](C)(C5CC5)C(N)=N4)c3)ccnc2n1 [Example 37, (3R,6S)-5-amino-6-cyclopropyl-3-(2-fluoro-5-((3-methoxypyrido[2,3-b]pyrazin-8-yl)amino)phenyl)-3,6-dimethyl-3,6-dihydro-2H-1,4-thiazine 1,1-dioxide] |  |
| 3200 nM | 862 nM |  | CC1(C)C(=N)N[C@](C)(c2nc(Nc3cccc(Cl)c3F)ccc2F)CS1(=O)=O [WO′426 Ex. 30, reference compound] |  |
| 5280 nM | 517 nM |  | COc1ccccc1Nc1ccc(F)c([C@]2(C)CS(=O)(=O)C(C)(C)C(=N)N2)n1 [WO′426 Ex. 30a, reference compound] |  |

The remaining lines, values behind:

| SMILES | Ki [1] | Ki [2] | IC50 (BACE-1) | Ki [3] |
| --- | --- | --- | --- | --- |
| C[C@@]1(c2nc(Nc3nccc4cc(C#N)cnc34)ccc2F)CS(=O)(=O)[C@@](CF)(C2CC2)C(N)=N1 [Example 2, 8-({6-[(3R,6S)-6-cyclopropyl-6-(fluoromethyl)-5-imino-3-methyl-1,1-dioxidothiomoipholin-3-yl]-5-fluoropyridin-2-yl}amino)-1,7-naphthyridine-3-carbonitrile] | 15 nM | 6.9 nM | 52 nM | 159 nM |
| C[C@@]1(c2cc(Nc3nccc4cc(Br)cnc34)ncc2F)CS(=O)(=O)[C@@](C)(C2CC2)C(N)=N1 [Example 3, 3-bromo-N-{4-[(3R,6S)-6-cyclopropyl-5-imino-3,6-dimethyl-1,1-dioxidothiomorpholin-3-yl]-5-fIuoropyridin-2-yl}-1,7-naphthyridin-8-amine] | 1.5 nM | 0.35 nM | 25 nM | 5530 nM |
| C[C@@]1(c2cc(Nc3nccc4cc(C#N)cnc34)ncc2F)CS(=O)(=O)[C@@](C)(C2CC2)C(N)=N1 [Example 4, 8-({4-[(3R,6S)-6-cyclopropyl-5-imino-3,6-dimethyl-1,1-dioxidothiomorpholin-3-yl]-5-fluoropyridin-2-yl}amino)-1,7-naphthyridine-3-carbonitrile] | 3.8 nM | 1.5 nM | 19 nM | 6650 nM |
| COc1cnc2c(Nc3ccc(F)c([C@]4(C)CS(=O)(=O)[C@@](CF)(C5CC5)C(N)=N4)c3)nccc2n1 [Example 8, N-{3-[(3R,6S)-6-cyclopropyl-6-(fluoromethyl)-5-imino-3-methyl-1,1-dioxidothiomoipholin-3-yl]-4-fluorophenyl}-2-methoxypyrido[3,4-b]pyrazin-5-amine] | 4.5 nM | 4.2 nM | 91 nM | 4010 nM |
| CC#CCOc1cnc2c(Nc3cnc(F)c([C@]4(C)CS(=O)(=O)[C@@](C)(C5CC5)C(N)=N4)c3)nccc2n1 [Example 29, (3R,6S)-5-amino-3-(5-((2-(but-2-yn-1-yloxy)pyrido[3,4-b]pyrazin-5-yl)amino)-2-fluoropyridin-3-yl)-6-cyclopropyl-3,6-dimethyl-3,6-dihydro-2H-1,4-thiazine 1,1-dioxide] |  |  | 30 nM |  |
| C[C@@]1(c2cc(Nc3ccnc4cccnc34)ncc2F)CS(=O)(=O)[C@@](C)(C2CC2)C(N)=N1 [Example 31, (3R,6S)-3-(2-((1,5-naphthyridin-4-yl)amino)-5-fluoropyridin-4-yl)-5-amino-6-cyclopropyl-3,6-dimethyl-3,6-dihydro-2H-1,4-thiazine 1,1-dioxide] |  |  | 180 nM |  |
| C[C@@]1(c2cc(Nc3ncnc4cc(C#N)cnc34)ncc2F)CS(=O)(=O)[C@@](C)(C2CC2)C(N)=N1 [Example 39, 4-((4-((3R,6S)-5-amino-6-cyclopropyl-3,6-dimethyl-1,1-dioxido-3,6-dihydro-2H-1,4-thiazin-3-yl)-5-fluoropyridin-2-yl)amino)pyrido[3,2-d]pyrimidine-7-carbonitrile] |  |  | 130 nM |  |
